Source: patent US20150337349A1, “Microbiome Modulation Index” (SECOND GENOME, INC., priority 2013, published 2015)
Structures can show the parent of a compound that is named as a salt.

What follows are compounds tested on fecal microbial communities (OTUs) (assay: Microbiome Modulation Index (MMI) from 16S rRNA V4 profiling of fecal samples before and after agent administration). Details: oral gavage daily for 5 consecutive days at Table 1 mouse dose; day 0 vs day 5 fecal samples; MMI = d/d0 relative to control mice; variability weight gi applied.
Format: in vivo, c57bl/6 mice
Description: Twenty five agents were selected to span multiple indications (Table 1). For each agent, the effective dose for the mouse was determined through a comprehensive search of the literature (Table 1). Working formulations were created by suspending agents in 1× phosphate buffered saline (PBS).
A total of 156 six-week old c57bl/6 mice (78 males and 78 females) were housed in separate cages 5 days prior to agent administration. Animals were handled daily by caretakers during this acclimation period. Animals were fed a standard chow diet throughout the course of the study.
Animals were treated with agents via oral gavage daily for 5 consecutive days beginning on day 1. N=6 mice per agent; 3 male+3 female. Fecal samples were collected using the ‘clean catch’ method in which the mice were held by the tail, causing them to defecate. Feces were collected in a sterile tube and immediately frozen and stored at −80° C. Fecal samples were collected in the morning prior to agent administration on the following days: −1,0,4,5.
Frozen day 0 and day 5 fecal specimens corresponding to 15 treatment groups (PBS+(Table 3) were profiled using Second Genome's Microbiome Signature Discovery™ service (San Bruno, Calif.). DNA was isolated using the PowerSoil DNA Isolation Kit following the manufacturer's instructions (MoBio Laboratories, Carlsbad, Calif.). For V4 sequencing assay profiling, the V4 region of the 16S rRNA genes was amplified using fusion primers tailed with Illumina sequencing adapters and indexing barcodes according to a previously described technique (Caporaso, 2010, PMID: 20534432). For each sample, amplified products were concentrated, purified and quantified by electrophoresis using an Agilent 2100 Bioanalyzer, then pooled for sequencing using the MiSeq (Illumina, San Diego, Calif.) instrument.
Using the software QIIME (Kuczynski, 2012, PMID: 23184592) and custom scripts, sequences were quality filtered and de-multiplexed using exact matches to the supplied DNA barcodes. Resulting sequences were then clustered into reference OTUs (rOTUs) by uclust (Edgar, 2010, PMID: 20709691) matching each sequence against the Greengenes sequences pre-clustered at 97%, a practice commonly referred to as “closed-reference OTU picking”. The longest Illumina-generated sequence from each of OTUs thus formed was then used as the OTU representative sequence, and assigned taxonomic classification via mothur's bayesian classifier (Schloss, 2009, PMID: 19801464) trained against the Greengenes database. Taxonomic annotations at 80% bootstrapped confidence were applied. Total sequence counts per fecal sample were scaled to be identical. Seven samples (MDO5M027D0, MD10M057D0, Md12F07D0, MD01F006D5, MD06F035D5, MD13M074D5, and MD04F023D5) were excluded following sequence quality filtering and alignment due to low sequence yield. Taxa were filtered to those present in at least one of the samples.
MMIs were calculated for the PBS control and 14 of the tested drugs. To calculate the MMI of an agent, an intermediate value d was calculated for each mouse administered with the respective agent. The abundance of each OTU before treatment in that mouse was compared to the abundance of that OTU after treatment as in exemplary Equation 11: […]
where A1i represents the abundance of OTU i at time-point 1 (post-administration), where A0i represents the abundance of OTU i at time-point 0 (pre-administration) gi represents a variability weight applied to each OTU, discussed below.
Once d was calculated for each mouse, d values for each administered mouse are averaged, and the resulting d was compared to a reference level of change d0 in a control group of mice not administered the agent. The value d0 is determined on the basis of laboratory studies of untreated mice in similar conditions (e.g., a similar number of samples to the number of samples obtained from treated mice).
The MMI is then calculated as in exemplary Equation 12: […]

Structure (SMILES) | MMI
COc1ccc2[n-]c([S@@+]([O-])Cc3ncc(C)c(OC)c3C)nc2c1.COc1ccc2[n-]c([S@@+]([O-])Cc3ncc(C)c(OC)c3C)nc2c1.[Mg+2] [Esomeprazole_magnesium_hydrate] | 1.1
NCCCC(O)(P(=O)(O)O)P(=O)(O)O [Alendronate_sodium_trihydrate] | 1.107
Nc1ccc(O)c(C(=O)O)c1 [Mesalamine] | 1.131
CN(C)CCOC(c1ccccc1)c1ccccc1 [Diphenhydramine_hydrochloride] | 1.202
Cc1ccc(-c2nc3ccc(C)cn3c2CC(=O)N(C)C)cc1 [Zolpidem_tartrate] | 1.443
CNCCC(Oc1ccc(C(F)(F)F)cc1)c1ccccc1 (centres unmarked) [Fluoxetine_hydrochloride] | 1.44
CC(C)c1c(C(=O)Nc2ccccc2)c(-c2ccccc2)c(-c2ccc(F)cc2)n1CC[C@@H](O)C[C@@H](O)CC(=O)O [Atorvastatin_calcium_salt_trihydrate] | 1.278
CC1(C)S[C@@H]2[C@H](NC(=O)[C@H](N)c3ccc(O)cc3)C(=O)N2[C@H]1C(=O)O [Amoxycillin] | 2.397
CN(C)C(=N)N=C(N)N [Metformin_hydrochloride] | 1.628
C[C@]12C=CC(=O)C=C1CC[C@@H]1[C@@H]2[C@@H](O)C[C@@]2(C)[C@H]1CC[C@]2(O)C(=O)COC(=O)CCC(=O)[O-].[Na+] [Prednisalone_21-hemisuccinate_sodium_salt] | 1.262
CC[C@H]1OC(=O)[C@H](C)[C@@H](O[C@H]2C[C@@](C)(OC)[C@@H](O)[C@H](C)O2)[C@H](C)[C@@H](O[C@@H]2O[C@H](C)C[C@H](N(C)C)[C@H]2O)[C@](C)(O)C[C@@H](C)CN(C)[C@H](C)[C@@H](O)[C@]1(C)O [Azithromycin] | 2.202
CC(=O)Oc1ccccc1C(=O)O [Acetylsiacylic_acid] | 1.093
CCN(CC)CCOC(=O)C1(C2CCCCC2)CCCCC1 [Dicyloamine_hydrochloride] | 1.222
OC(Cn1cncn1)(Cn1cncn1)c1ccc(F)cc1F [Fluconazole] | 1.003
